The values below come from patent US9255090B2, “Heterocyclyl derivatives and their use as prostaglandin D2 receptor modulators” (Actelion Pharmaceuticals Ltd., priority 2012, dated 2016).

This assay deals with hCRTH2 receptor (Homo sapiens (Human), UniProt Q9Y5Y4). Description: hCRTH2 receptor membranes radioligand (3H-PGD2) displacement assay. Type of assay: binding. The following applies: 3H-PGD2 radioligand displacement, HEK293-hCRTH2 membranes. The gist of the method:
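Compound was first mixed with buffer, then 3H-PGD2 was added at 2.5 nM, and the reaction was started with hCRTH2 membranes from HEK293 cells at 20 μg/well. After 90 min at room temperature, mixtures were filtered and washed with ice-cold buffer, and retained radioactivity was counted.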

Structures are written as SMILES.

Sequence of hCRTH2 receptor (Q9Y5Y4 whole entry): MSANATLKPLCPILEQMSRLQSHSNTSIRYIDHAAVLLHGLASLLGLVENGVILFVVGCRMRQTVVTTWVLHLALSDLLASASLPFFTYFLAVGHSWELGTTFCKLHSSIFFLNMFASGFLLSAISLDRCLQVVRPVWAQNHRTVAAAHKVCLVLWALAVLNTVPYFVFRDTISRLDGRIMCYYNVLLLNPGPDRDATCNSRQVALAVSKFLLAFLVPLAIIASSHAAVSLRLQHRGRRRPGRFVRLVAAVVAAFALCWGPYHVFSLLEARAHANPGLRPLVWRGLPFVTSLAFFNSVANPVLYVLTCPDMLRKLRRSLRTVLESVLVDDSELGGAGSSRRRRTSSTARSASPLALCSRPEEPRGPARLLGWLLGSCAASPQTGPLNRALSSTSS

Compound `COc1ccccc1CNC(=O)N1CCc2c(F)ccc(-c3cc(CC(=O)O)ccc3OC)c2C1` [Example 135, {3-[5-Fluoro-2-(2-methoxy-benzylcarbamoyl)-1,2,3,4-tetrahydro-isoquinolin-8-yl]-4-methoxy-phenyl}-acetic acid] had an IC50 of 19.6 nM. With `O=C(O)Cc1ccc(F)c(-c2ccc(F)c3c2CN(C(=O)OCc2ccccc2)CC3)c1` [Example 10, 8-(5-Carboxymethyl-2-fluoro-phenyl)-5-fluoro-3,4-dihydro-1H-isoquinoline-2-carboxylic acid benzyl ester] the figure was 10.1 nM; with `COc1ccc(CC(=O)O)cc1-c1ccc(F)c2c1CN(C(=O)COc1ccccc1)CC2` [Example 43, {3-[5-Fluoro-2-(2-phenoxy-acetyl)-1,2,3,4-tetrahydro-isoquinolin-8-yl]-4-methoxy-phenyl}-acetic acid], 30.2 nM; with `CCOc1cc(CC(=O)O)ccc1-c1ccc(F)c2c1CN(C(=O)NCc1ccccc1F)CC2` [Example 440, {3-Ethoxy-4-[5-fluoro-2-(2-fluoro-benzylcarbamoyl)-1,2,3,4-tetrahydro-isoquinolin-8-yl]-phenyl}-acetic acid], 3.8 nM. For `CCOc1cc(CC(=O)O)ccc1-c1ccc(F)c2c1CN(C(=O)CCc1ccccc1F)CC2` [Example 317, (3-Ethoxy-4-{5-fluoro-2-[3-(2-fluoro-phenyl)-propionyl]-1,2,3,4-tetrahydro-isoquinolin-8-yl}-phenyl)-acetic acid] the value was 1.7 nM; for `CCOc1cc(CC(=O)O)ccc1-c1ccc(F)c2c1CN(C(=O)CC1CCOc3cc(F)ccc31)CC2` (racemic) [Example 327], 0.2 nM; for `CCOc1ccc(CC(=O)O)cc1-c1ccc(F)c2c1CN(C(=O)NCc1ccccn1)CC2` [Example 449, (4-Ethoxy-3-{5-fluoro-2-[(pyridin-2-ylmethyl)-carbamoyl]-1,2,3,4-tetrahydro-isoquinolin-8-yl}-phenyl)-acetic acid], 14.2 nM. With `CCOc1ccc(CC(=O)O)cc1-c1ccc(F)c2c1CN(C(=O)CC(C)c1nccs1)CC2` (racemic) [Example 283] the figure was 7.2 nM; with `CCCNC(=O)N1CCc2c(F)ccc(-c3cc(CC(=O)O)ccc3OCC)c2C1` [Example 439, [4-Ethoxy-3-(5-fluoro-2-propylcarbamoyl-1,2,3,4-tetrahydro-isoquinolin-8-yl)-phenyl]-acetic acid], 126 nM; with `O=C(O)Cc1ccc(OC(F)(F)F)c(-c2ccc(F)c3c2CN(C(=O)[C@@H]2C[C@H]2c2ccccc2)CC3)c1` [Example 26, {3-[5-Fluoro-2-((1R,2R)-2-phenyl-cyclopropanecarbonyl)-1,2,3,4-tetrahydro-isoquinolin-8-yl]-4-trifluoromethoxy-phenyl}-acetic acid], 3.07 nM.

`COc1ccc(CC(=O)O)cc1-c1ccc(F)c2c1CN(C(=O)NCCc1ccccc1)CC2` [Example 133, [3-(5-Fluoro-2-phenethylcarbamoyl-1,2,3,4-tetrahydro-isoquinolin-8-yl)-4-methoxy-phenyl]-acetic acid] showed an IC50 of 13 nM. For `CCOc1cc(CC(=O)O)ccc1-c1ccc(F)c2c1CN(C(=O)O[C@H](C)c1ccccc1)CC2` [Example 385, 8-(4-Carboxymethyl-2-ethoxy-phenyl)-5-fluoro-3,4-dihydro-1H-isoquinoline-2-carboxylic acid (R)-1-phenyl-ethyl ester] the value was 35.8 nM; for `O=C(O)Cc1cc(F)cc(-c2ccc(F)c3c2CN(C(=O)OCc2ccccc2)CC3)c1` [Example 14, 8-(3-Carboxymethyl-5-fluoro-phenyl)-5-fluoro-3,4-dihydro-1H-isoquinoline-2-carboxylic acid benzyl ester], 14.8 nM; for `COc1ccc2[nH]cc(CCC(=O)N3CCc4c(F)ccc(-c5cc(CC(=O)O)ccc5OC)c4C3)c2c1` [Example 63, (3-{5-Fluoro-2-[3-(5-methoxy-1H-indol-3-yl)-propionyl]-1,2,3,4-tetrahydro-isoquinolin-8-yl}-4-methoxy-phenyl)-acetic acid], 29.5 nM. For `CCOc1cc(CC(=O)O)ccc1-c1ccc(F)c2c1CN(C(=O)CCc1ncccc1OC)CC2` [Example 314, (3-Ethoxy-4-{5-fluoro-2-[3-(3-methoxy-pyridin-2-yl)-propionyl]-1,2,3,4-tetrahydro-isoquinolin-8-yl}-phenyl)-acetic acid] the value was 46.1 nM; for `COc1ccc(CC(=O)O)cc1-c1ccc(F)c2c1CN(C(=O)[C@@H]1C[C@H]1c1ccc(Cl)cc1Cl)CC2` (racemic) [Example 98, (±)-(3-{2-[trans-2-(2,4-Dichloro-phenyl)-cyclopropanecarbonyl]-5-fluoro-1,2,3,4-tetrahydro-isoquinolin-8-yl}-4-methoxy-phenyl)-acetic acid], 10.1 nM; for `CCOc1cc(CC(=O)O)ccc1-c1ccc(F)c2c1CN(C(=O)CC1COCc3ccccc31)CC2` (racemic) [Example 232], 0.6 nM. On to `CCOc1ccc(CC(=O)O)cc1-c1ccc(F)c2c1CN(C(=O)O[C@H](C)c1ccccc1)CC2` [Example 364, 8-(5-Carboxymethyl-2-ethoxy-phenyl)-5-fluoro-3,4-dihydro-1H-isoquinoline-2-carboxylic acid (R)-1-phenyl-ethyl ester], for which the IC50 was 6 nM. With `COc1ccc(CC(=O)O)cc1-c1ccc(F)c2c1CN(C(=O)C1CCc3ccccc3O1)CC2` (racemic) [Example 115, (±)-{3-[2-(Chroman-2-carbonyl)-5-fluoro-1,2,3,4-tetrahydro-isoquinolin-8-yl]-4-methoxy-phenyl}-acetic acid] the figure was 173 nM; with `CCOc1cc(CC(=O)O)ccc1-c1ccc(F)c2c1CN(C(=O)/C=C/c1ccccn1)CC2` [Example 338, {3-Ethoxy-4-[5-fluoro-2-((E)-3-pyridin-2-yl-acryloyl)-1,2,3,4-tetrahydro-isoquinolin-8-yl]-phenyl}-acetic acid], 2.3 nM; with `CCOCC(=O)N1CCc2c(F)ccc(-c3cc(CC(=O)O)ccc3OC)c2C1` [Example 46, {3-[2-(2-Ethoxy-acetyl)-5-fluoro-1,2,3,4-tetrahydro-isoquinolin-8-yl]-4-methoxy-phenyl}-acetic acid], 774 nM. For `COc1cccc(OCC(=O)O)c1-c1ccc(F)c2c1CN(C(=O)OCc1ccccc1)CC2` [Example 417, 8-(2-Carboxymethoxy-6-methoxy-phenyl)-5-fluoro-3,4-dihydro-1H-isoquinoline-2-carboxylic acid benzyl ester] the value was 23.5 nM. For `COc1ccc(CC(=O)O)cc1-c1ccc(F)c2c1CCN(C(=O)COCc1ccccc1Cl)C2` [Example 103, (3-{2-[2-(2-Chloro-benzyloxy)-acetyl]-8-fluoro-1,2,3,4-tetrahydro-isoquinolin-5-yl}-4-methoxy-phenyl)-acetic acid] the value was 69.2 nM; for `COc1ccc(CC(=O)O)cc1-c1ccc(F)c2c1CN(C(=O)[C@@H]1C[C@H]1c1ccc(Cl)cc1)CC2` (racemic) [Example 2, (±)-(3-{2-[trans-2-(4-Chloro-phenyl)-cyclopropanecarbonyl]-5-fluoro-1,2,3,4-tetrahydro-isoquinolin-8-yl}-4-methoxy-phenyl)-acetic acid], 1.93 nM.

The compound `O=C(O)COc1ccc(Cl)c(-c2ccc(C(F)(F)F)c3c2CN(C(=O)OCc2ccccc2)CC3)c1` [Example 180, 8-(5-Carboxymethoxy-2-chloro-phenyl)-5-trifluoromethyl-3,4-dihydro-1H-isoquinoline-2-carboxylic acid benzyl ester] returned an IC50 of 208 nM.

For the compound `CCOc1ccc(CC(=O)O)cc1-c1ccc(F)c2c1CN(C(=O)CC(C)c1ccc(F)cc1)CC2` (stereo not shown) [Example 212, (4-Ethoxy-3-{5-fluoro-2-[3-(4-fluoro-phenyl)-butyryl]-1,2,3,4-tetrahydro-isoquinolin-8-yl}-phenyl)-acetic acid], the IC50 came to 11.4 nM. `CCOc1ccc(CC(=O)O)cc1-c1ccc(F)c2c1CN(C(=O)CC(c1ccccn1)C1CC1)CC2` (racemic) [Example 318]: the half-maximal inhibitory concentration (IC50) worked out at 114 nM. For `COc1ccc(CC(=O)O)cc1-c1ccc(F)c2c1CN(C(=O)CC1(O)CCCCC1)CC2` [Example 128, (3-{5-Fluoro-2-[2-(1-hydroxy-cyclohexyl)-acetyl]-1,2,3,4-tetrahydro-isoquinolin-8-yl}-4-methoxy-phenyl)-acetic acid] the value was 538 nM. With `COc1ccc(CC(=O)O)cc1-c1ccc(F)c2c1CN(C(=O)CC1CC1)CC2` [Example 254, {3-[2-(2-Cyclopropyl-acetyl)-5-fluoro-1,2,3,4-tetrahydro-isoquinolin-8-yl]-4-methoxy-phenyl}-acetic acid] the figure was 614 nM. For `CCOc1ccc(CC(=O)O)cc1-c1ccc(F)c2c1CN(C(=O)CC(CC)c1ccccn1)CC2` (racemic) [Example 308] the value was 13.1 nM. For the compound `COc1ccc(CC(=O)O)cc1-c1ccc(F)c2c1CN(C(=O)CCn1cc(C)c3ccccc31)CC2` [Example 57, (3-{5-Fluoro-2-[3-(3-methyl-indol-1-yl)-propionyl]-1,2,3,4-tetrahydro-isoquinolin-8-yl}-4-methoxy-phenyl)-acetic acid], the IC50 came to 16.2 nM. With `CCOc1cc(CC(=O)O)ccc1-c1ccc(F)c2c1CN(C(=O)OCc1cnccn1)CC2` [Example 386, 8-(4-Carboxymethyl-2-ethoxy-phenyl)-5-fluoro-3,4-dihydro-1H-isoquinoline-2-carboxylic acid pyrazin-2-ylmethyl ester] the figure was 3.4 nM; with `CC(CC(=O)N1CCc2c(F)ccc(-c3cc(CC(=O)O)ccc3OCC(F)(F)F)c2C1)c1ccccn1` (racemic) [Example 302], 8.1 nM. For `CCOc1cc(CC(=O)O)ccc1-c1ccc(F)c2c1CN(C(=O)OCCC(C)C)CC2` [Example 393, 8-(4-Carboxymethyl-2-ethoxy-phenyl)-5-fluoro-3,4-dihydro-1H-isoquinoline-2-carboxylic acid 3-methyl-butyl ester] the value was 49.4 nM.
